{"source": "paper PMC5218480", "about": "(PLoS ONE, 2017)", "test_system": "MV-4-11 cells", "experiment": "Gene expression microarray analysis (Affymetrix PrimeView) and GSEA", "type": "cell-based, human", "set-up": "RFU PODN (11730768_x_at) / Fold change /veh PODN (11730768_x_at) / RFU LINC00158 (11744669_a_at) / Fold change /veh LINC00158 (11744669_a_at) / RFU DUSP10 (11751237_a_at) / Fold change /veh DUSP10 (11751237_a_at) / RFU ID3 (11757404_x_at) / Fold change /veh ID3 (11757404_x_at) / RFU PLEKHG5 (11737974_s_at) / Fold change /veh PLEKHG5 (11737974_s_at) / RFU LRRC4B (11730491_at) / Fold change /veh LRRC4B (11730491_at) / RFU GIMAP4 (11747438_a_at) / Fold change /veh GIMAP4 (11747438_a_at) / RFU KRT8 (11758183_x_at) / Fold change /veh KRT8 (11758183_x_at) / RFU CNN1 (11734310_a_at) / Fold change /veh CNN1 (11734310_a_at) / RFU VPS37D (11726825_at) / Fold change /veh VPS37D (11726825_at) / RFU C10orf10 (11716522_x_at) / Fold change /veh C10orf10 (11716522_x_at) / RFU KIR2DL2 /// KIR2DL4 /// KIR2DL5A /// KIR2DL5B /// KIR2DS1 /// KIR2DS2 /// KIR2DS3 /// KIR2DS4 /// KIR3DL3 /// KIR3DL3 /// KIR3DS1 (11738374_at) / Fold change /veh KIR2DL2 /// KIR2DL4 /// KIR2DL5A /// KIR2DL5B /// KIR2DS1 /// KIR2DS2 /// KIR2DS3 /// KIR2DS4 /// KIR3DL3 /// KIR3DL3 /// KIR3DS1 (11738374_at) / RFU C1QL1 (11718748_at) / Fold change /veh C1QL1 (11718748_at) / RFU TMPRSS4 (11747572_a_at) / Fold change /veh TMPRSS4 (11747572_a_at) / RFU HAMP (11756126_x_at) / Fold change /veh HAMP (11756126_x_at) / RFU RNFT2 (11725882_a_at) / Fold change /veh RNFT2 (11725882_a_at) / RFU NR4A2 (11747474_a_at) / Fold change /veh NR4A2 (11747474_a_at) / RFU ABCC12 (11746883_a_at) / Fold change /veh ABCC12 (11746883_a_at) / RFU TMEM136 (11760407_x_at) / Fold change /veh TMEM136 (11760407_x_at) / RFU CLDN22 /// WWC2 (11732394_at) / Fold change /veh CLDN22 /// WWC2 (11732394_at) / RFU HLA-DPB1 (11760878_x_at) / Fold change /veh HLA-DPB1 (11760878_x_at) / RFU SPINT1 (11716480_a_at) / Fold change /veh SPINT1 (11716480_a_at) / RFU GAP43 (11754022_s_at) / Fold change /veh GAP43 (11754022_s_at) / RFU A4GNT (11735810_at) / Fold change /veh A4GNT (11735810_at) / RFU PRB3 (11715151_x_at) / Fold change /veh PRB3 (11715151_x_at) / RFU TUBB4B (11761932_at) / Fold change /veh TUBB4B (11761932_at) / RFU CAPN14 (11732068_a_at) / Fold change /veh CAPN14 (11732068_a_at) / RFU TMCC2 (11721928_a_at) / Fold change /veh TMCC2 (11721928_a_at) / RFU IRGQ (11745062_a_at) / Fold change /veh IRGQ (11745062_a_at) / RFU FAM174B (11720279_a_at) / Fold change /veh FAM174B (11720279_a_at) / RFU TMPRSS4 (11748680_a_at) / Fold change /veh TMPRSS4 (11748680_a_at) / RFU FAM212B (11763350_a_at) / Fold change /veh FAM212B (11763350_a_at) / RFU PLEKHG5 (11743358_a_at) / Fold change /veh PLEKHG5 (11743358_a_at) / RFU ZSCAN30 (11745921_a_at) / Fold change /veh ZSCAN30 (11745921_a_at) / RFU CMKLR1 (11741424_a_at) / Fold change /veh CMKLR1 (11741424_a_at) / RFU LOC101060620 /// MAPK8IP1 (11723275_at) / Fold change /veh LOC101060620 /// MAPK8IP1 (11723275_at) / RFU SPTSSB (11747773_x_at) / Fold change /veh SPTSSB (11747773_x_at) / RFU PRSS12 (11739890_at) / Fold change /veh PRSS12 (11739890_at) / RFU BIN1 (11741810_x_at) / Fold change /veh BIN1 (11741810_x_at) / RFU WNT11 (11732464_a_at) / Fold change /veh WNT11 (11732464_a_at) / RFU C10orf10 (11716521_a_at) / Fold change /veh C10orf10 (11716521_a_at) / RFU C5orf56 (11738089_at) / Fold change /veh C5orf56 (11738089_at) / RFU CYB561 (11721691_x_at) / Fold change /veh CYB561 (11721691_x_at) / RFU ANKRD19P (11752326_a_at) / Fold change /veh ANKRD19P (11752326_a_at) / RFU OR2T12 /// OR2T33 /// OR2T8 (11738714_s_at) / Fold change /veh OR2T12 /// OR2T33 /// OR2T8 (11738714_s_at) / RFU VCAN (11748164_a_at) / Fold change /veh VCAN (11748164_a_at) / RFU JSRP1 (11732532_at) / Fold change /veh JSRP1 (11732532_at) / RFU KRTAP10-11 (11738290_x_at) / Fold change /veh KRTAP10-11 (11738290_x_at) / RFU MYO3A (11730013_a_at) / Fold change /veh MYO3A (11730013_a_at) / RFU EBF3 (11725865_a_at) / Fold change /veh EBF3 (11725865_a_at) / RFU CAMK2N1 (11719241_x_at) / Fold change /veh CAMK2N1 (11719241_x_at) / RFU C5orf56 (11738088_a_at) / Fold change /veh C5orf56 (11738088_a_at) / RFU OLFML3 (11715873_a_at) / Fold change /veh OLFML3 (11715873_a_at) / RFU LOC100653217 /// NTM (11731650_a_at) / Fold change /veh LOC100653217 /// NTM (11731650_a_at) / RFU MAPK11 (11762145_a_at) / Fold change /veh MAPK11 (11762145_a_at) / RFU FIZ1 (11724087_x_at) / Fold change /veh FIZ1 (11724087_x_at) / RFU OASL (11726364_x_at) / Fold change /veh OASL (11726364_x_at) / RFU SOX15 (11748057_x_at) / Fold change /veh SOX15 (11748057_x_at) / RFU CD79A (11719716_a_at) / Fold change /veh CD79A (11719716_a_at) / RFU HIST1H1D (11736915_at) / Fold change /veh HIST1H1D (11736915_at) / RFU CASKIN2 (11723855_a_at) / Fold change /veh CASKIN2 (11723855_a_at) / RFU LOC730098 (11760151_x_at) / Fold change /veh LOC730098 (11760151_x_at) / RFU OR4N2 (11742367_at) / Fold change /veh OR4N2 (11742367_at) / RFU PRRT2 (11749266_a_at) / Fold change /veh PRRT2 (11749266_a_at) / RFU SNX32 (11753110_a_at) / Fold change /veh SNX32 (11753110_a_at) / RFU CDHR5 (11726645_a_at) / Fold change /veh CDHR5 (11726645_a_at) / RFU RCAN1 (11760418_a_at) / Fold change /veh RCAN1 (11760418_a_at) / RFU FAM167A (11723789_a_at) / Fold change /veh FAM167A (11723789_a_at) / RFU FAM26E (11764081_at) / Fold change /veh FAM26E (11764081_at) / RFU ISYNA1 (11749810_s_at) / Fold change /veh ISYNA1 (11749810_s_at) / RFU ACY1 (11761880_at) / Fold change /veh ACY1 (11761880_at) / RFU 11764098_at / Fold change /veh 11764098_at / RFU SAMD14 (11745864_x_at) / Fold change /veh SAMD14 (11745864_x_at) / RFU NPB (11741838_a_at) / Fold change /veh NPB (11741838_a_at) / RFU TMPRSS6 (11731388_a_at) / Fold change /veh TMPRSS6 (11731388_a_at) / RFU KRTAP10-2 (11738614_at) / Fold change /veh KRTAP10-2 (11738614_at) / RFU ARHGAP8 /// PRR5-ARHGAP8 (11727945_x_at) / Fold change /veh ARHGAP8 /// PRR5-ARHGAP8 (11727945_x_at) / RFU KRTAP5-7 /// NADSYN1 (11734609_at) / Fold change /veh KRTAP5-7 /// NADSYN1 (11734609_at) / RFU RASL12 (11751679_a_at) / Fold change /veh RASL12 (11751679_a_at) / RFU CDKN2B (11736163_a_at) / Fold change /veh CDKN2B (11736163_a_at) / RFU PRF1 (11729649_at) / Fold change /veh PRF1 (11729649_at) / RFU, ZNF638 /// ZNF638-IT1 / Fold change vs veh, ZNF638 /// ZNF638-IT1 / RFU, PANK3 / Fold change vs veh, PANK3 / RFU, SH3YL1 / Fold change vs veh, SH3YL1 / RFU, ZEB2 / Fold change vs veh, ZEB2 / RFU, NRIP1 / Fold change vs veh, NRIP1 / RFU, PTTG1IP / Fold change vs veh, PTTG1IP / RFU, CAPN2 / Fold change vs veh, CAPN2 / RFU, MED14 / Fold change vs veh, MED14 / RFU, SNORA58 / Fold change vs veh, SNORA58 / RFU, C1orf63 / Fold change vs veh, C1orf63 / RFU, LRRFIP1 / Fold change vs veh, LRRFIP1 / RFU, NDUFAF7 / Fold change vs veh, NDUFAF7 / RFU, SLC12A2 / Fold change vs veh, SLC12A2 / RFU, IBTK / Fold change vs veh, IBTK / RFU, ESF1 / Fold change vs veh, ESF1 / Fold change vs veh, TMEM50B / RFU, TAOK1 / Fold change vs veh, TAOK1 / RFU, ACBD3 / Fold change vs veh, ACBD3 / RFU, TMA16 / Fold change vs veh, TMA16 / RFU, RWDD3 / Fold change vs veh, RWDD3 / RFU, BCAT1 / Fold change vs veh, BCAT1 / RFU, EDEM3 / Fold change vs veh, EDEM3 / RFU, TMEM33 / Fold change vs veh, TMEM33 / RFU, WDR75 / Fold change vs veh, WDR75 / RFU, AHCTF1 / Fold change vs veh, AHCTF1 / RFU, TFRC / Fold change vs veh, TFRC / RFU, ZDHHC17 / Fold change vs veh, ZDHHC17 / RFU, NOM1 / Fold change vs veh, NOM1 / RFU, ARL8B / Fold change vs veh, ARL8B / RFU, ZBTB11 / Fold change vs veh, ZBTB11 / RFU, TAMM41 / Fold change vs veh, TAMM41 / RFU, KIAA1704 /// LOC100996395 / Fold change vs veh, KIAA1704 /// LOC100996395 / RFU, ING1 / Fold change vs veh, ING1 / RFU, TRMT61B / Fold change vs veh, TRMT61B / RFU, FUBP3 / Fold change vs veh, FUBP3 / RFU, TP53 / Fold change vs veh, TP53 / RFU, TNKS2 / Fold change vs veh, TNKS2 / RFU, ZFP14 / Fold change vs veh, ZFP14 / RFU, ACTR2 / Fold change vs veh, ACTR2 / RFU, PPP3R1 / Fold change vs veh, PPP3R1 / RFU, PIK3R1 / Fold change vs veh, PIK3R1 / RFU, HNRNPA1 / Fold change vs veh, HNRNPA1 / RFU, RNF170 / Fold change vs veh, RNF170 / RFU, ZNF28 / Fold change vs veh, ZNF28 / RFU, RNGTT / Fold change vs veh, RNGTT / RFU, OGT / Fold change vs veh, OGT / RFU, BRD1 / Fold change vs veh, BRD1 / RFU, MARS / Fold change vs veh, MARS / RFU, ZNF655 / Fold change vs veh, ZNF655 / RFU, FAHD1 / Fold change vs veh, FAHD1 / RFU, BDP1 / Fold change vs veh, BDP1 / RFU, LRRCC1 / Fold change vs veh, LRRCC1 / RFU, ARID1A / Fold change vs veh, ARID1A / RFU, ZNF146 / Fold change vs veh, ZNF146 / RFU, ZNF330 / Fold change vs veh, ZNF330 / RFU, GPN3 / Fold change vs veh, GPN3 / RFU, C9orf123 / Fold change vs veh, C9orf123 / RFU, N4BP2L2 / Fold change vs veh, N4BP2L2 / RFU, ARFIP1 / Fold change vs veh, ARFIP1 / RFU, FAM179B / Fold change vs veh, FAM179B / RFU, BCL10 / Fold change vs veh, BCL10 / RFU, UHRF1BP1L / Fold change vs veh, UHRF1BP1L / RFU, BET1 / Fold change vs veh, BET1 / RFU, CNOT2 / Fold change vs veh, CNOT2 / RFU, ZNF268 / Fold change vs veh, ZNF268 / Fold change vs veh, ZNF507 / RFU, DGCR2 / Fold change vs veh, DGCR2 / RFU, WDSUB1 / Fold change vs veh, WDSUB1 / Fold change vs veh, HSP90B1 /// MIR3652 / RFU, ADSS / Fold change vs veh, ADSS / RFU, GK / Fold change vs veh, GK / RFU, ZNF148 / Fold change vs veh, ZNF148 / RFU, TAF9 / Fold change vs veh, TAF9 / RFU, SLC1A5 / Fold change vs veh, SLC1A5 / RFU, SLMO2 / Fold change vs veh, SLMO2 / RFU, ABCC4 / Fold change vs veh, ABCC4 / RFU, LOC101060439 /// RAP1B / Fold change vs veh, LOC101060439 /// RAP1B / RFU, RFX7 / Fold change vs veh, RFX7 / RFU, GTPBP10 / Fold change vs veh, GTPBP10 / RFU, CNEP1R1 / Fold change vs veh, CNEP1R1 / RFU, BIVM-ERCC5 /// ERCC5 / Fold change vs veh, BIVM-ERCC5 /// ERCC5 / RFU, ILF3 / Fold change vs veh, ILF3 / RFU 11762660_at / Fold change /veh 11762660_at / RFU VCAN (11757783_s_at) / Fold change /veh VCAN (11757783_s_at) / RFU DDX43 (11728927_at) / Fold change /veh DDX43 (11728927_at) / RFU KRT8 (11758188_x_at) / Fold change /veh KRT8 (11758188_x_at) / RFU NKD1 (11759106_at) / Fold change /veh NKD1 (11759106_at) / RFU SRD5A1 (11742802_a_at) / Fold change /veh SRD5A1 (11742802_a_at) / RFU TPSAB1 /// TPSB2 (11721975_s_at) / Fold change /veh TPSAB1 /// TPSB2 (11721975_s_at) / RFU GSTM3 (11746129_a_at) / Fold change /veh GSTM3 (11746129_a_at) / RFU IL23R (11737362_x_at) / Fold change /veh IL23R (11737362_x_at) / RFU TMEM51 (11727254_a_at) / Fold change /veh TMEM51 (11727254_a_at) / RFU PIWIL2 (11732686_x_at) / Fold change /veh PIWIL2 (11732686_x_at) / RFU ORM1 (11744905_x_at) / Fold change /veh ORM1 (11744905_x_at) / RFU CCDC152 (11743942_at) / Fold change /veh CCDC152 (11743942_at) / RFU ECM1 (11717891_a_at) / Fold change /veh ECM1 (11717891_a_at) / RFU IL23R (11748794_a_at) / Fold change /veh IL23R (11748794_a_at) / RFU TNFAIP8L3 (11732012_x_at) / Fold change /veh TNFAIP8L3 (11732012_x_at) / RFU MBOAT4 (11741988_at) / Fold change /veh MBOAT4 (11741988_at) / RFU 11764193_at / Fold change /veh 11764193_at / RFU TMEM53 (11763286_at) / Fold change /veh TMEM53 (11763286_at) / RFU MAGEB2 (11727129_at) / Fold change /veh MAGEB2 (11727129_at) / RFU TMEM200A (11744735_a_at) / Fold change /veh TMEM200A (11744735_a_at) / RFU CCDC152 (11751479_a_at) / Fold change /veh CCDC152 (11751479_a_at) / RFU FAM211A (11726209_a_at) / Fold change /veh FAM211A (11726209_a_at) / RFU RGS16 (11746705_a_at) / Fold change /veh RGS16 (11746705_a_at) / RFU VCAN (11755009_s_at) / Fold change /veh VCAN (11755009_s_at) / RFU RHOB (11743442_s_at) / Fold change /veh RHOB (11743442_s_at) / RFU RGS16 (11720943_a_at) / Fold change /veh RGS16 (11720943_a_at) / RFU RGS16 (11720944_at) / Fold change /veh RGS16 (11720944_at) / RFU, VPS4B / Fold change vs veh, VPS4B / RFU, CREB1 / Fold change vs veh, CREB1 / RFU, DNAJC13 / Fold change vs veh, DNAJC13 / RFU, GNAQ / Fold change vs veh, GNAQ / RFU, CDK5R1 / Fold change vs veh, CDK5R1 / RFU, ZRANB3 / Fold change vs veh, ZRANB3 / RFU, CUL4A / Fold change vs veh, CUL4A / RFU, CCNY / Fold change vs veh, CCNY / RFU, UFL1 / Fold change vs veh, UFL1 / RFU, COG3 / Fold change vs veh, COG3 / RFU, DIAPH2 / Fold change vs veh, DIAPH2 / RFU, SKA2 / Fold change vs veh, SKA2 / RFU, AFF3 / Fold change vs veh, AFF3 / RFU, LMF1 / Fold change vs veh, LMF1 / RFU, IPO11 / Fold change vs veh, IPO11 / RFU, DFFB / Fold change vs veh, DFFB / RFU, FOXP1 / Fold change vs veh, FOXP1 / RFU, CARD8 / Fold change vs veh, CARD8 / RFU, STRN3 / Fold change vs veh, STRN3 / RFU, ADK / Fold change vs veh, ADK / RFU, RASSF2 / Fold change vs veh, RASSF2 / RFU, WIPF1 / Fold change vs veh, WIPF1 / RFU, LARP1B / Fold change vs veh, LARP1B / RFU, RASA1 / Fold change vs veh, RASA1 / RFU, RB1 / Fold change vs veh, RB1 / RFU, PPFIA1 / Fold change vs veh, PPFIA1 / RFU, MAT2A / Fold change vs veh, MAT2A / RFU, CCT5 / Fold change vs veh, CCT5 / RFU, WDR92 / Fold change vs veh, WDR92 / RFU, CUX1 / Fold change vs veh, CUX1 / RFU, TTC7A / Fold change vs veh, TTC7A / RFU, TMEM135 / Fold change vs veh, TMEM135 / RFU, DEPTOR / Fold change vs veh, DEPTOR / RFU, CPM / Fold change vs veh, CPM / RFU, DNAJB6 / Fold change vs veh, DNAJB6 / RFU, CACNA2D3 / Fold change vs veh, CACNA2D3 / RFU, DTX4 / Fold change vs veh, DTX4 / RFU, TFCP2 / Fold change vs veh, TFCP2 / RFU, GMCL1 /// GMCL1P1 / Fold change vs veh, GMCL1 /// GMCL1P1 / RFU, AEBP2 / Fold change vs veh, AEBP2 / RFU, SNHG1 /// SNORD22 /// SNORD25 /// SNORD26 /// SNORD27 /// SNORD28 /// SNORD29 /// SNORD31 / Fold change vs veh, SNHG1 /// SNORD22 /// SNORD25 /// SNORD26 /// SNORD27 /// SNORD28 /// SNORD29 /// SNORD31 / Fold change (Aza/veh), C12orf56 (ProbeSet 11735607_a_at) / Fold change (ACY-1035/veh), C12orf56 (ProbeSet 11735607_a_at) / Fold change (Aza/veh), FGFR1OP (ProbeSet 11751329_s_at) / Fold change (ACY-1035/veh), FGFR1OP (ProbeSet 11751329_s_at) / Fold change (Aza/veh), VPS36 (ProbeSet 11739960_a_at) / Fold change (ACY-1035/veh), VPS36 (ProbeSet 11739960_a_at) / RFU SYPL1 (11715823_x_at) / Fold change /veh SYPL1 (11715823_x_at) / RFU IGFBP7 (11715501_s_at) / Fold change /veh IGFBP7 (11715501_s_at) / RFU REEP3 (11722064_at) / Fold change /veh REEP3 (11722064_at) / RFU IGLL1 (11728026_x_at) / Fold change /veh IGLL1 (11728026_x_at): dose or concentration left out as unconfirmed", "conditions": "MV-4-11 cells, 48 hours", "data": [{"smiles": "Nc1ncn([C@@H]2O[C@H](CO)[C@@H](O)[C@H]2O)c(=O)n1", "note": "[azacitidine]", "values": [{"measurement": "Fold change /veh IL23R (11748794_a_at)", "value": 1.48}]}]}
